Measurements published in patent publication US9822147B2, “Methods of treating ophthalmic diseases using NPR-B agonists” (priority 2009, dated 2017).
Numbered stars: 1 amine (or outer) side, 2 acyl side, 3 side chain; on linkers, the order of the positions; unused ones are H or OH. Square brackets hold non-standard residues; d marks the D form. Peptide text beside a SMILES is read from it. * marks the point of attachment. X14 = NCC(=O)N[C@@H]1C[C@@H](C(=O)[*:2])N([*:1])C1; X3 = NCCN[C@@H]1C[C@@H](C(=O)[*:2])N([*:1])C1; Pro(4R-NH2) = N[C@H]1CN[C@H](C(=O)O)C1; X9 = CN(C)CC[C@@H](N[*:1])C(=O)[*:2]; dOrn(Me2) = CN(C)CCC[C@@H](N)C(=O)O; X2 = O=C([C@H]1CCCN([*:1])C1)[*:2]; dDap(Me2) = CN(C)C[C@@H](N)C(=O)O; Hyp = O=C(O)[C@@H]1C[C@@H](O)CN1; NHcycloheptyl = C1CCCC(N*)CC1; NMeL = CN[C@@H](CC(C)C)C(=O)O; X6 = C[C@@H]1CCCC[C@H]1N*; Nle = CCCC[C@H](N)C(=O)O; Octanoyl = CCCCCCCC(=O)*

These compounds were tested against T1, NPR-B (Homo sapiens, UniProt P20594) (assay: NPR-B induced production of cyclic GMP in human glaucoma trabecular meshwork cells (GTM-3)). Settings: not given.
T1 construct: a functional assay using endogenously NPR-B expressing GTM-3 cells; endogenous in cells; host or cells: GTM-3 (human glaucoma trabecular meshwork cells)
T1 sequence (P20594 23-1047): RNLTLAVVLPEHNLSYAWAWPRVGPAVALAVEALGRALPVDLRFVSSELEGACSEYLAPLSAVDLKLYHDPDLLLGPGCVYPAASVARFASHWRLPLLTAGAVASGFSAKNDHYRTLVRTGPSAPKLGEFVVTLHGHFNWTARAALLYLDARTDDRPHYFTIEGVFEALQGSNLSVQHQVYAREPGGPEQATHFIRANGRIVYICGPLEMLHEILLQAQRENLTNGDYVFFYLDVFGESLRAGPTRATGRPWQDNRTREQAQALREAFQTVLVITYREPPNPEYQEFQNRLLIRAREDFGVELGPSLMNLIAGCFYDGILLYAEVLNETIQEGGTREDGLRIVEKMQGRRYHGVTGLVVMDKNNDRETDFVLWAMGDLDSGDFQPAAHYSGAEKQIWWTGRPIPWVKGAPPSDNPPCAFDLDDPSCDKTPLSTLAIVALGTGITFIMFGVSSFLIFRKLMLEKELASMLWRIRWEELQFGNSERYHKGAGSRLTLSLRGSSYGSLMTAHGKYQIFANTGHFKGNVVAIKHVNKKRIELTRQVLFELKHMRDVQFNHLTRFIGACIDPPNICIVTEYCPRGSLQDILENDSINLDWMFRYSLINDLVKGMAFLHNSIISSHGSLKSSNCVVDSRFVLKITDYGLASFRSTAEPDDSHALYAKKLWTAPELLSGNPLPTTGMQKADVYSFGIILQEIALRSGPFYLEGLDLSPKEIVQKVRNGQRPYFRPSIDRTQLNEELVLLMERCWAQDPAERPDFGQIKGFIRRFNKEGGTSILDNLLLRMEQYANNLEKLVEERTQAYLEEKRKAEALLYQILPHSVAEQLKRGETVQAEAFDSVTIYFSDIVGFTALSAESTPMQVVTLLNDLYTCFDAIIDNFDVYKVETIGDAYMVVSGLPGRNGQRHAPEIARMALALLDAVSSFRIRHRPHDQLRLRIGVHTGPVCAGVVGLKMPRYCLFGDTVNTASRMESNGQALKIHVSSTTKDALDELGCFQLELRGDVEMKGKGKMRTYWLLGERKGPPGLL
Format: cell-based

SMILES	EC50 [nM]
CCCCCCCC(=O)N1CCC[C@H](C(=O)N[C@@H](Cc2ccccc2)C(=O)NCC(=O)N[C@@H](CC(C)C)C(=O)N2C[C@H](N)C[C@H]2C(=O)N(C)[C@@H](CC(C)C)C(=O)N[C@@H](CC(=O)O)C(=O)N[C@@H](CCCNC(=N)N)C(=O)N[C@H](C(N)=O)[C@@H](C)CC)C1 [JAL-1320, Occ-Sni-Phe-Gly-Leu-Tap-Nml-Asp-Arg-Ile-NH2] (Octanoyl-[X2]FGL[Pro(4R-NH2)][NMeL]DRI-NH2)	< 1000

Same assay, conditions: group by EC50 and Emax (CNP = 100%); Table 4; read-out: Activity (group), NPR-B activation assayed with GTM-3 cells

SMILES	EC50 [nM]
CCCCCCCC(=O)N1CCC[C@H](C(=O)N[C@@H](Cc2ccccc2)C(=O)N[C@H](CC(C)C)C(=O)N[C@@H](CC(C)C)C(=O)N2C[C@H](NCCN)C[C@H]2C(=O)N(C)[C@@H](CC(C)C)C(=O)N[C@@H](CC(=O)O)C(=O)N[C@@H](CCCNC(=N)N)C(=O)N[C@H](C(N)=O)[C@@H](C)CC)C1 [JAL-1371, Occ-Sni-Phe-leu-Leu-Tap(Ae)-Nml-Asp-Arg-Ile-NH2] (Octanoyl-[X2]F[dL]L[X3][NMeL]DRI-NH2)	< 1000
CCCCCCCC(=O)N1CCCC[C@@H]1C(=O)N[C@@H](Cc1ccccc1)C(=O)N[C@H](CC(C)C)C(=O)N[C@@H](CC(C)C)C(=O)N1C[C@H](O)C[C@H]1C(=O)N[C@@H](CC(C)C)C(=O)N[C@@H](CC(=O)O)C(=O)N[C@@H](CCCNC(=N)N)C(=O)N[C@H](C(N)=O)[C@@H](C)CC [JAL-1054, Occ-pip-Phe-leu-Leu-Hyp-Leu-Asp-Arg-Ile-NH2] (HELM PEPTIDE1{[CCCCCCCC(=O)[*:2]].[O=C([C@H]1CCCCN1[*:1])[*:2]].F.[dL].L.[Hyp].L.D.R.I.[am]}$$$$V2.0)	< 1000
CCCCCCCC(=O)N1CCC[C@H](C(=O)N[C@@H](Cc2ccccc2)C(=O)N[C@H](CC(C)C)C(=O)N[C@@H](CC(C)C)C(=O)N2C[C@H](O)C[C@H]2C(=O)N(C)[C@@H](CC(C)C)C(=O)N[C@@H](CC(=O)O)C(=O)N2CCC[C@H]2C(=O)N[C@@H]2CCCC[C@H]2C)C1 [JAL-1510, Occ-Sni-Phe-leu-Leu-Hyp-Nml-Asp-Pro-1860] (Octanoyl-[X2]F[dL]L[Hyp][NMeL]DP-X6)	< 1000
CCCCCCCC(=O)N1CCC[C@H](C(=O)N[C@@H](Cc2ccccc2)C(=O)N[C@H](CC(C)C)C(=O)N[C@@H](CC(C)C)C(=O)N2C[C@H](N)C[C@H]2C(=O)N(C)[C@@H](CC(C)C)C(=O)N[C@@H](CC(=O)O)C(=O)N2CCC[C@H]2C(=O)N[C@H](C(N)=O)[C@@H](C)CC)C1 [JAL-1559, Occ-Sni-Phe-leu-Leu-Tap-Nml-Asp-Pro-Ile-NH2] (Octanoyl-[X2]F[dL]L[Pro(4R-NH2)][NMeL]DPI-NH2)	< 1000
CCCCCC[C@H](NC(=O)[C@@H]1CCCN1C(=O)[C@@H](N)CCCCN)C(=O)N1CCC[C@H](C(=O)N[C@@H](Cc2ccccc2)C(=O)N[C@H](CC(C)C)C(=O)N[C@@H](CC(C)C)C(=O)N2C[C@H](O)C[C@H]2C(=O)N(C)[C@@H](CC(C)C)C(=O)N[C@@H](CC(=O)O)C(=O)N[C@@H](CCCNC(=N)N)C(=O)N[C@H](C(N)=O)[C@@H](C)CC)C1 [JAL-1900, H-Lys-Pro-Hgl-Sni-Phe-leu-Leu-Hyp-Nml-Asp-Arg-Ile-NH2] (HELM PEPTIDE1{K.P.[CCCCCC[C@H](N[*:1])C(=O)[*:2]].[O=C([C@H]1CCCN([*:1])C1)[*:2]].F.[dL].L.[Hyp].[meL].D.R.I.[am]}$$$$V2.0)	< 1000
CCCCCCCC(=O)N1CCCC[C@@H]1C(=O)N(C)[C@@H](Cc1ccccc1)C(=O)N[C@H](CCCNC(=N)N)C(=O)N[C@@H](CC(C)C)C(=O)N1CCC[C@H]1C(=O)N(C)[C@@H](CC(C)C)C(=O)N[C@@H](CC(=O)O)C(=O)N[C@@H](CCCNC(=N)N)C(=O)N[C@H](C(N)=O)[C@@H](C)CC [JAL-1077, Occ-pip-Nmf-arg-Leu-Pro-Nml-Asp-Arg-Ile-NH2] (HELM PEPTIDE1{[CCCCCCCC(=O)[*:2]].[O=C([C@H]1CCCCN1[*:1])[*:2]].[meF].[dR].L.P.[meL].D.R.I.[am]}$$$$V2.0)	< 1000
CCCCCCCC(=O)N1CCC[C@H](C(=O)N[C@@H](Cc2ccccc2)C(=O)N[C@H](CC(C)C)C(=O)N[C@@H](CCCC)C(=O)N2C[C@H](O)C[C@H]2C(=O)N(C)[C@@H](CC(C)C)C(=O)N[C@@H](CC(=O)O)C(=O)N2CCC[C@H]2C(=O)NC2CCCCCC2)C1 [JAL-1657, Occ-Sni-Phe-leu-Nle-Hyp-Nml-Asp-Pro-Che] (Octanoyl-[X2]F[dL][Nle][Hyp][NMeL]DP-NHcycloheptyl)	< 1000
CCCCCCCCN1CCC[C@H](C(=O)N[C@@H](Cc2ccccc2)C(=O)N[C@H](CC(C)C)C(=O)N[C@@H](CC(C)C)C(=O)N2C[C@H](N)C[C@H]2C(=O)N(C)[C@@H](CC(C)C)C(=O)N[C@@H](CC(=O)O)C(=O)N[C@@H](CCCNC(=N)N)C(=O)N[C@H](C(N)=O)[C@@H](C)CC)C1 [JAL-1326, Oct-Sni-Phe-leu-Leu-Tap-Nml-Asp-Arg-Ile-NH2] (HELM PEPTIDE1{[CCCCCCCCN1CCC[C@H](C(=O)[*:2])C1].F.[dL].L.[N[C@@H]1C[C@@H](C(=O)[*:2])N([*:1])C1].[meL].D.R.I.[am]}$$$$V2.0)	< 1000
CCCCCCCC(=O)N[C@H](C)C(=O)N[C@@H](Cc1ccccc1)C(=O)N[C@H](CC(C)C)C(=O)N[C@@H](CC(C)C)C(=O)N1C[C@H](O)C[C@H]1C(=O)N(C)[C@@H](CC(C)C)C(=O)N[C@@H](CC(=O)O)C(=O)N[C@@H](CCCNC(=N)N)C(=O)NC(C)(CC(C)C)C(N)=O (stereo partly drawn) [JAL-1414, Occ-ala-Phe-leu-Leu-Hyp-Nml-Asp-Arg-Aml-NH2] (HELM PEPTIDE1{[CCCCCCCC(=O)[*:2]].[dA].F.[dL].L.[Hyp].[meL].D.R.[CC(C)CC(C)(N[*:1])C(=O)[*:2]].[am]}$$$$V2.0)	< 1000
CCCCCCCC(=O)N1CCC[C@H](C(=O)N[C@@H](Cc2ccccc2)C(=O)N[C@H](CCN(C)C)C(=O)N[C@@H](CC(C)C)C(=O)N2C[C@H](O)C[C@H]2C(=O)N(C)[C@@H](CC(C)C)C(=O)N[C@H](C(=O)N[C@@H](CCCNC(=N)N)C(=O)NC2CCCCCC2)C(C)C)C1 [JAL-1784, Occ-Sni-Phe-dab(Me2)-Leu-Hyp-Nml-Val-Arg-Che] (Octanoyl-[X2]F[X9]L[Hyp][NMeL]VR-NHcycloheptyl)	< 1000
CCCCCCCC(=O)N1CCC[C@H](C(=O)N[C@@H](Cc2ccccc2)C(=O)N[C@H](CN(C)C)C(=O)N[C@@H](CC(C)C)C(=O)N2C[C@H](N)C[C@H]2C(=O)N(C)[C@@H](CC(C)C)C(=O)N[C@@H](CC(=O)O)C(=O)N2CCC[C@H]2C(=O)NC2CCCCCC2)C1 [JAL-1603, Occ-Sni-Phe-dap(Me2)-Leu-Tap-Nml-Asp-Pro-Che] (Octanoyl-[X2]F[dDap(Me2)]L[Pro(4R-NH2)][NMeL]DP-NHcycloheptyl)	< 1000
CCCCCCCC(=O)N1CCC[C@H](C(=O)N[C@@H](Cc2ccccc2)C(=O)N[C@H](CCCN(C)C)C(=O)N[C@@H](CC(C)C)C(=O)N2C[C@H](N)C[C@H]2C(=O)N(C)[C@@H](CC(C)C)C(=O)N[C@H](C(=O)N[C@@H](CCCNC(=N)N)C(=O)NC2CCCCCC2)C(C)C)C1 [JAL-1850, Occ-Sni-Phe-orn(Me2)-Leu-Tap-Nml-Val-Arg-Che] (Octanoyl-[X2]F[dOrn(Me2)]L[Pro(4R-NH2)][NMeL]VR-NHcycloheptyl)	< 1000
CCCCCCCC(=O)N[C@H](C)C(=O)N[C@@H](Cc1ccccc1)C(=O)N[C@H](CC(C)C)C(=O)N[C@@H](CC(C)C)C(=O)N1C[C@H](O)C[C@H]1C(=O)N(C)[C@@H](CC(C)C)C(=O)N[C@@H](CC(=O)O)C(=O)N[C@@H](CCCNC(=N)N)C(=O)N[C@H](C(N)=O)C(C)(C)C [JAL-1352, Occ-ala-Phe-leu-Leu-Hyp-Nml-Asp-Arg-Tbg-NH2] (HELM PEPTIDE1{[CCCCCCCC(=O)[*:2]].[dA].F.[dL].L.[Hyp].[meL].D.R.[CC(C)(C)[C@H](N[*:1])C(=O)[*:2]].[am]}$$$$V2.0)	< 1000
CCCCCCCC(=O)N1CCCC[C@@H]1C(=O)N[C@@H](Cc1ccccc1)C(=O)N[C@H](CCCNC(=N)N)C(=O)N[C@@H](CC(C)C)C(=O)N1C[C@H](O)C[C@H]1C(=O)N(C)[C@@H](CC(C)C)C(=O)N[C@@H](CC(=O)O)C(=O)N[C@@H](CCCNC(=N)N)C(=O)N[C@H](C(N)=O)[C@@H](C)CC [JAL-1087, Occ-pip-Phe-arg-Leu-Hyp-Nml-Asp-Arg-Ile-NH2] (HELM PEPTIDE1{[CCCCCCCC(=O)[*:2]].[O=C([C@H]1CCCCN1[*:1])[*:2]].F.[dR].L.[Hyp].[meL].D.R.I.[am]}$$$$V2.0)	< 1000
CCCCCCCC(=O)N1CCC[C@H](C(=O)N[C@@H](Cc2ccccc2)C(=O)N[C@H](CC(C)C)C(=O)N[C@@H](CC(C)C)C(=O)N2C[C@H](NC(=O)CN)C[C@H]2C(=O)N(C)[C@@H](CC(C)C)C(=O)N[C@@H](CC(=O)O)C(=O)N[C@@H](CCCNC(=N)N)C(=O)N[C@H](C(N)=O)[C@@H](C)CC)C1 [JAL-1322, Occ-Sni-Phe-leu-Leu-Tap(G)-Nml-Asp-Arg-Ile-NH2] (Octanoyl-[X2]F[dL]L[X14][NMeL]DRI-NH2)	< 1000
